Here are results for eleven compounds from patent US20220296573A1, “NOVEL COMPOUNDS AND PHARMACEUTICAL COMPOSITIONS THEREOF FOR THE TREATMENT OF INFLAMMATORY DISORDERS” (Galapagos NV, priority 2019, published 2022).

The structures appear in SMILES notation. Converted amounts (≈) assume the structure as drawn.

One data set addresses T1, human IRAK-4 (Homo sapiens, UniProt Q9NWZ3).
T1 construct: purchased Carna Biosciences 09 145
T1 sequence (Q9NWZ3 1-460): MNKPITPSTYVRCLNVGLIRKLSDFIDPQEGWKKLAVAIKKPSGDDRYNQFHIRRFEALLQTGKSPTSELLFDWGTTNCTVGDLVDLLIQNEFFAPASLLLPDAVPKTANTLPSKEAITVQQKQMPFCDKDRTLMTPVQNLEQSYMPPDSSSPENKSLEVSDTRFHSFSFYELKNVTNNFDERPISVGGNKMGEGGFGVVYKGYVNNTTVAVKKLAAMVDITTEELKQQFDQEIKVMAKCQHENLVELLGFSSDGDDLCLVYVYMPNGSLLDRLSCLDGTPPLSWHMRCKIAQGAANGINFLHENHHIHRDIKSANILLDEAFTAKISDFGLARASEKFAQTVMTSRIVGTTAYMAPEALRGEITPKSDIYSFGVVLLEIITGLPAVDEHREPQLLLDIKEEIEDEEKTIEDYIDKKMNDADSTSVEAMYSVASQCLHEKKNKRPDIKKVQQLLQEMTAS
In words: Phosphorylation IC50 determination for human IRAK-4 (ADP-Glo Kinase Assay). Conditions: human IRAK-4, substrate RIP140, Km ATP; read-out: IRAK4 ADPglo biochemical assay IC50. As for the experimental part: The phosphorylation of the substrate RIP140 (SEQ ID1) by IRAK4 at Km ATP was detected with the ADP-Glo Kinase Assay (Promega, Cat #V9103), a luminescent kinase assay which measures the ADP formed from a kinase reaction. (Zegzouti et al. 2009) In a second step the kinase reaction was terminated and all the remaining ATP was depleted. In a final step the ADP was converted into ATP and this newly synthesized ATP was measured by using a luciferase/luciferin reaction with a luminescent reader. The luminescent signal positively correlated with kinase activity, in particular kinase inhibition giving a decrease of the luminescent signal.
For the semi-automated assay, the positive control (100% inhibition) was prepared by diluting 10 mM staurosporine stock mixture (20 μL) in water (3.8 mL) and DMSO (180 μL), thus resulting in a […] staurosporine solution at 1% DMSO (final concentration after further dilution in the kinase reaction).
For the automated assay, no pre-dilution of the 10 mM staurosporine stock was made. 10 mM staurosporine was spotted directly in the assay plate using acoustic dispensing and complemented with DMSO to result in a similar final concentration as mentioned above.
For the semi-automated assay, the negative control (0% inhibition) was prepared by mixing water (3.8 mL) and DMSO (200 μL) resulting in a final concentration of 1% DMSO after further dilution in the kinase reaction. For the automated assay no pre-dilution of DMSO was done. 100% DMSO was spotted directly on the assay plate.
The assay buffer solution was prepared at a concentration corresponding to 5 fold the final (most diluted) assay concentration by mixing a solution of 125 mM TRIS pH 7.5+0.05% Triton X-100+2.5 mM EGTA (5.27 mL) with 1M mgCl2 (72 μL), 1M DTT (57.6 μL), and 200 mM MnCl2 (360 μL).
For example, for the semi-automated method, the enzyme-substrate mixture was prepared by mixing water (3999 μL), assay buffer solution (1380 μL), 1 mM RIP140 (138 μL—SEQ ID1), and 200 ng/mL IRAK 4 (3.45 μL Carna Biosciences, 09 145).
For semi-automated method, the ATP mixture was prepared at a concentration corresponding to 2.5 fold the final (most diluted) assay concentration of the semi-automated method and 1.5 fold the final (most diluted) assay concentration of the automated method. For example, for the semi-automated method, the ATP mixture was prepared by mixing water (4126 μL), assay buffer solution (1380 μL), and 10 mM ATP (13.80 μL).
The assay are performed either in a semi-automated or fully automated manner. The assay volume and the incubation time of the ADP detection were different accordingly the method used.
The compounds were prepared as a serial dilution of 10 point dose responses with 1/5 dilution steps in 100% DMSO starting from 2 mM highest concentration, diluted 1/20 in water. 1 μL was transferred dry to the assay plates.
On each assay plate 32 wells of each control (positive & negative) were added, followed by 2 μL enzyme-substrate mixture.
The reaction was started by adding 2 μL diluted ATP (final concentration Km ATP) on the assay plates. Plates were centrifuged for a few seconds at 1000 rpm followed by an incubation at r.t. for 120 min.
The reactions were stopped and the unconsumed ATP was depleted by adding 5 μL ADP-glo Reagent (Promega, Cat #V9103) to the reaction. The plates were quickly centrifuged at 1000 rpm and incubated at r.t. for 40 min corresponding to full ATP depletion.
The ADP was converted back to ATP and luciferase and luciferin were introduced to detect ATP by adding 10 μL kinase detection reagent (Promega, Cat #V9103) to the reaction. The plates were centrifuged for a few seconds at 1000 rpm and incubated at r.t. for a further 30 min.
Luminescent read out was performed on an Envision luminescent reader (Perkin Elmer).
For the automated assay, the compounds were prepared as a serial dilution of 10 point dose responses with 1/5 dilution steps in 100% DMSO starting from 2 mM highest concentration. […]

In another data set the test system is Mouse Hepatocyte. In words: Metabolic stability in mouse hepatocytes. Conditions: mouse cryopreserved hepatocytes, 1 μM. The data set is classed as in vitro ADME. The method, then:
(§1) The aim of this assay is to determine the metabolic stability of the compound in hepatocytes (cryopreserved) of different species. Low hepatocyte stability may result in the formation of unwanted metabolites, high clearance, and therefore is not desirable.
(§2) A 10 mM stock solution of test compound in DMSO was first diluted in DMSO to 3 mM, and then in modified Krebs-Henseleit buffer (Sigma, K3753) to 5 μM. This compound dilution was added to a suspension of pooled cryopreserved hepatocytes (BioreclamationIVT) at 37° C. under gentle shaking.
(§3) Final reaction conditions were: 1 μM of test compound, 0.03% DMSO, 0.5 million viable hepatocytes/mL, and 75 μL incubation volume.
(§4) Testosterone (1 μM) and 7-hydroxycoumarin (1 μM) were used, respectively as phase I and phase II metabolic reaction controls.
(§5) After 0, 10, 20, 45, 90, 120 and 180 min of incubation, the reaction was terminated with 225 μL of MeCN:MeOH (2:1) containing 100 ng/mL of diclofenac as analytical internal standard. Samples were mixed, centrifuged and the supernatant analyzed by LC-MS/MS.
(§6) The instrument responses (ratios of test compound and internal standard peak areas) were referenced to the zero time point samples (considered as 100%) in order to determine the percentage of compound remaining.
(§7) Plots of percentage compound remaining were used to determine the intrinsic clearance in the hepatocyte incubations using the following equations:
(§8) Scaled Clint [L/h/kg]=Clint [μL/min/10^6 cells]*#(10) cells/g liver*60*(1/10^6) Scaled Clint unbound [L/h/kg]=Clint [L/h/kg]/Fu,inc where: fu,inc equals hepatocyte binding, derived from microsomal binding (fu,mic) by following equation: […]

Another data set has as its system Human Hepatocyte. In words: Metabolic stability in human hepatocytes. The data set is classed as in vitro ADME. Conditions: human cryopreserved hepatocytes, 1 μM. The method, then: as §1, §2, §3, §4, §5, §6, §7, §8
A short description of another data set: Thermodynamic solubility. The data set is classed as physicochemical. Conditions: Fasted State Simulated Intestine Fluid (FaSSIF), 37 °C, fassif, thermodynamic from solid, Fasted State Simulated Intestine Fluid, read-out: Tsol FaSSIF. The method, then: In a 8 mL glass vial, 1-2 mg of dry matter of compound were added and stirred with the suitable buffers (Fed State Simulated Intestine Fluid, FeSSIF, or Fasted State Simulated Intestine Fluid, FaSSIF, or Fasted State Simulated Gastric Fluid, FaSSGF, or phosphate buffer pH 7.4) for 24 h at r.t. (for the buffer pH 7.4) or 37° C. (for the GI fluids). The concentration of the mixture was 1 mg/mL.
A volume of 1000 μL were sampled, centrifuged for 10 min at 10 000 rpm and 500 μL of the supernatant were filtered on captiva plate. The samples are diluted in duplicates in DMSO (F100 and F10). Then, a final dilution (F100) in 80/20 H2O/MeCN containing the internal standard (warfarin) was used for LCMS-MS analysis.
A standard curve was made starting from a 40,000 ng/mL stock in DMSO, freshly prepared from dry matter. Then, successive concentrations at 15,000, 11,000, 6,000, 2,500, 1,000, 375, 150 and 75 ng/mL in DMSO were prepared.
Three quality control samples were made: one of 10,000, 1,500 and 200 ng/mL in DMSO, also starting from the DMSO working stock solution at 40,000 ng/mL.
The standard curve and quality controls were diluted a F100 in 80/20 H2O/MeCN (with internal standard) and analyzed on LC/MS-MS (API4000 or API5500).
The samples were analyzed on LC-MS with a flow rate of 0.6 mL/min. The mobile phase A was 0.1% formic acid in water and the mobile phase B was 0.1% formic acid in 90% MeCN and 10% of water. The sample was run under positive or negative ion spray on Pursuit C18—5 μm (2.0×20 mm) column, from Agilent.
The ratio analyte/internal standard peaks areas of the standard curve were plotted in a graph and a linear or polynomial of the second order equation was used to calculate the unknown concentrations of the test compound.
Solubility values were reported in μM and g/mL.

The IC50 is the concentration needed to halve the response being measured. With `COc1cc2nc(C3COCCO3)cn2cc1NC(=O)c1cccc(C(F)(F)F)n1` (stereo not shown) [Compound 4, N-[2-(1,4-dioxan-2-yl)-7-methoxy-imidazo[1,2-a]pyridin-6-yl]-6-(trifluoromethyl)pyridine-2-carboxamide], at human IRAK-4, the IC50 was in the range of 0.1 to 5 nM. Moreover, in the data set on Mouse Hepatocyte, the “Mouse Hepatocyte stability (Perc. remaining at 90 min)” value was determined as 103.55 Perc. Also, the “Human Hepatocyte stability (Perc. remaining at 90 min)” value in the data set with Human Hepatocyte is 85.9 Perc.
Turning to `COc1cc2nc(C3COCCO3)cn2cc1NC(=O)c1cccn(C)c1=O` (stereo not shown) [Compound 10, N-(2-(1,4-dioxan-2-yl)-7-methoxyimidazo[1,2-a]pyridin-6-yl)-1-methyl-2-oxo-1,2-dihydropyridine-3-carboxamide], on human IRAK-4, the half-maximal inhibitory concentration (IC50) lay in the range of 10 to 50 nM. Moreover, the solubility thermodynamic at 24 h in the data set “Thermodynamic solubility” is 86.2 µg/mL (≈ 224 µM). In addition, the “Human Hepatocyte stability (Perc. remaining at 90 min)” value in the data set on Human Hepatocyte worked out at 99.95 Perc.
Turning to `CCOc1c(NC(=O)c2cccn(C3CC3)c2=O)cn2cc(C3CCOCC3)nc2c1F` [Compound 12, 1-cyclopropyl-N-(7-ethoxy-8-fluoro-2-(tetrahydro-2H-pyran-4-yl)imidazo[1,2-a]pyridin-6-yl)-2-oxo-1,2-dihydropyridine-3-carboxamide], at human IRAK-4, the concentration for half-maximal inhibition (IC50) was 5 to 10 nM. Further, the “Mouse Hepatocyte stability (Perc. remaining at 90 min)” value in the data set with Mouse Hepatocyte was 75.1 Perc. Moreover, the “Human Hepatocyte stability (Perc. remaining at 90 min)” value with Human Hepatocyte was 85.35 Perc.
As for `CC(F)(F)c1cccc(C(=O)Nc2cn3cc(C4COCCO4)nc3cc2C(N)=O)n1` (stereo not shown) [Compound 13, 6-(6-(1,1-difluoroethyl)picolinamido)-2-(1,4-dioxan-2-yl)imidazo[1,2-a]pyridine-7-carboxamide], the IC50 at human IRAK-4 fell in the range of 0.1 to 5 nM. For the same compound, the “Mouse Hepatocyte stability (Perc. remaining at 90 min)” value in the data set on Mouse Hepatocyte worked out at 72.8 Perc. In addition, in the data set on Human Hepatocyte, the “Human Hepatocyte stability (Perc. remaining at 90 min)” value came to 93.85 Perc.
In the case of `O=C(Nc1cn2cc(C3CCOCC3)nc2cc1C(=O)NC1CC1)c1cccc(C(F)(F)F)n1` [Compound 15, N-cyclopropyl-2-(tetrahydro-2H-pyran-4-yl)-6-(6-(trifluoromethyl)picolinamido)imidazo[1,2-a]pyridine-7-carboxamide], on human IRAK-4, the concentration for half-maximal inhibition (IC50) is 10 to 50 nM.
On the same count and under the same terms, next, `CCNC(=O)c1cc2nc(C3CCOCC3)cn2cc1NC(=O)c1cccc(C(F)(F)F)n1` [Compound 16, N-ethyl-2-(tetrahydro-2H-pyran-4-yl)-6-(6-(trifluoromethyl)picolinamido)imidazo[1,2-a]pyridine-7-carboxamide]: 10 to 50 nM; `O=C(Nc1cn2cc(C3CCOCC3)nc2cc1C(=O)NCC(F)F)c1cccc(C(F)(F)F)n1` [Compound 17, N-(2,2-difluoroethyl)-2-(tetrahydro-2H-pyran-4-yl)-6-(6-(trifluoromethyl)picolinamido)imidazo[1,2-a]pyridine-7-carboxamide]: 5 to 10 nM.
Same read-out and setting: next, `CC(C)(C)NC(=O)c1cc2nc(C3CCOCC3)cn2cc1NC(=O)c1cccc(C(F)(F)F)n1` [Compound 18, N-(tert-butyl)-2-(tetrahydro-2H-pyran-4-yl)-6-(6-(trifluoromethyl)picolinamido)imidazo[1,2-a]pyridine-7-carboxamide]: 10 to 50 nM.
On the same count and under the same terms, next, `O=C(Nc1cn2cc(C3CCOCC3)nc2cc1C(=O)NCC(F)(F)F)c1cccc(C(F)(F)F)n1` [Compound 21, 2-(tetrahydro-2H-pyran-4-yl)-N-(2,2,2-trifluoroethyl)-6-(6-(trifluoromethyl)picolinamido)imidazo[1,2-a]pyridine-7-carboxamide]: 10 to 50 nM.
With `O=C(Nc1cn2cc(C3CCOCC3)nc2cc1C(=O)NC1COC1)c1cccc(C(F)(F)F)n1` [Compound 22, N-(oxetan-3-yl)-2-(tetrahydro-2H-pyran-4-yl)-6-(6-(trifluoromethyl)picolinamido)imidazo[1,2-a]pyridine-7-carboxamide], on human IRAK-4, the half-maximal inhibitory concentration (IC50) lay within 10 to 50 nM.
On the same count and under the same terms, next, `COc1cc2nc(C3CCS(=O)(=O)CC3)cn2cc1NC(=O)c1cccn(C)c1=O` [Compound 24, N-(2-(1,1-dioxidotetrahydro-2H-thiopyran-4-yl)-7-methoxyimidazo[1,2-a]pyridin-6-yl)-1-methyl-2-oxo-1,2-dihydropyridine-3-carboxamide]: 10 to 50 nM.
